Converted amounts (≈) assume the structure as drawn. Square brackets hold non-standard residues; d marks the D form. Peptide text beside a SMILES is read from it. N(1-naphthylmethyl)Gly = O=C(O)CNCc1cccc2ccccc12; Nphe = O=C(O)CNCc1ccccc1; NBuGly = CCCCNCC(=O)O
Tests used:
Staphylococcus aureus = test system: Staphylococcus aureus; parameters: method as in PMID 30842436; conditions: cited from earlier work
[1] = test system: Staphylococcus pseudintermedius; conditions: cited from earlier work; for S.p. MIC: Staphylococcus pseudintermedius, Table S5, in µM
rat erythrocytes = assay: in vitro; assay type: cell-based, rat (Sprague–Dawley); conditions: for IC10 haemolysis: rat erythrocytes; for IC50: red cells of rat
Procedure, shortened: (§1)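 Washed heparinized erythrocytes (~5 × 10^8 RBC/mL in PBS) incubated 1 h at 37 °C with peptides in serial 1:1 dilutions (150 to 1.2 µM final). Haemoglobin release read at 405 nm in supernatant; % haemolysis relative to 1% Triton X-100 (100%) and PBS diluent (0%).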

in vitro [2] = assay type: cell-based, rat (Sprague–Dawley); conditions: Sprague-Dawley, rat
Procedure, shortened: as §1

in vitro [3] = assay type: cell-based, bovine; conditions: bovine
Procedure, shortened: as §1

bovine erythrocytes = assay: in vitro; assay type: cell-based; conditions: bovine erythrocytes
Procedure, shortened: as §1

Pseudomonas aeruginosa = test system: Pseudomonas aeruginosa; parameters: method as in PMID 30842436; conditions: cited from earlier work
human erythrocytes [4] = conditions: cited from earlier work
in vitro [5] = assay type: cell-based, dog; conditions: dog
Procedure, shortened: as §1

canine erythrocytes = assay: in vitro; assay type: cell-based, dog; conditions: for IC10 haemolysis: canine erythrocytes; for IC50: red cells of canine
Procedure, shortened: as §1

human erythrocytes [6] = assay: in vitro; assay type: cell-based; conditions: for IC10 haemolysis: human erythrocytes; for IC50: red cells of human
Procedure, shortened: as §1

in vitro [7] = assay type: cell-based, human; conditions: human
Procedure, shortened: as §1

HaCaT cells = assay type: cell-based, human; conditions: 1 h
Protocol: (§2) An immortalised human keratinocyte (HaCaT) cell line (Gift from David Gram Naym at Bispebjerg Hospital, Denmark), a human liver cancer cell line (HepG2; ATCC HB-8065) and a human epithelial cervical cancer cell line (HeLa; ATCC CCL-2) were cultured to ∼90% confluence after 21–25 h of growth under standard conditions (5% CO2 at 37 °C). Cells were cultured in Dulbecco’s Modified Eagle’s Medium supplemented with 10% (v/v) fetal bovine serum (FBS). All culture media were supplemented with penicillin (100 IU/mL) and streptomycin (100 μg/mL). All cell media and supplements were obtained from Sigma-Aldrich (St. Louis, MO, United States). The 96-well plates were supplied by Corning Costar (Sigma-Aldrich, Brøndby, Denmark). Cell viability assessment was performed on cell monolayers grown to ∼90% confluence in 96-well plates by using the MTS/PMS assay as previously described. Briefly, the adhered cells were washed with PBS solution (37 °C) (ThermoFisher Scientific, Roskilde) and exposed for 1 h at 37 °C to 100 μL of peptides dissolved in the medium also used for culturing of the cell line (at concentrations in the range 0–1,000 μg/mL). The cells were subsequently washed twice with 37 °C PBS and then 100 μL of an MTS/PMS solution in media, consisting of 240 μg/mL MTS (Promega, Madison, WI, United States) and 2.4 mg/mL PMS (Promega, Madison, WI, United States), was added to the cells, which then were incubated for 1 h at 37 °C protected from light. A plate reader (SpectraMax i3X; Molecular devices, San Jose, CA) was used to measure the absorbance at 492 nm. The relative viability was calculated by using 0.2% (w/v) sodium dodecyl sulfate (SDS) as the positive control, while cells exposed to medium without test compound were used as the negative control.

HepG2 cells = assay type: cell-based, human; conditions: 1 h
Protocol: as §2

[8] = at in vivo dosing concentrations
Protocol: (§3) To further address the actual correlation of the in vitro observations to an in vivo situation, three compounds were selected for animal studies. […] Peptides where chosen to include compounds with ranging antibacterial activity, residue composition, hydrophobicity and in vitro mammalian toxicity, deliberately excluding compounds too hydrophobic and too toxic (50% > lysis at 150 µM in vitro against rats and human). […] All the compounds were tested at the same concentrations 0, 0.01 and 1.0 mg/kg rat.
(§4) The compounds were formulated in sterile PBS (tablets, Medicago, Sweden), sonicated and sterile filtered through a Millex-GV filter (0.22 µm pore size, Ø 13 mm, Merck) before use. […] Doses were 0 (vehicle control), 0.01 and 1.0 mg/kg rat).

HeLa cells = assay type: cell-based, human; conditions: 1 h
Protocol: as §2

physchem = conditions: PBS
Protocol: as §3, §4

[9] = Dose-ranging intravenous toxicity study in rats; assay type: in vivo, rat (WistarHan); conditions: rat
Protocol: All animals were injected with a single dose of 0.5 mL (2 mL/kg body weight) and it was slowly administered over 2 min and 10 s. Shorter cationic tripeptides[4] and synthetic AMPs[72] have previously been evaluated employing the intravenous route. It was an interesting observation that the animals survived the systemic tail vein injection seemingly unaffected. This observation is in contrast to related synAMPs investigated as intravenous antibiotics which induced acute toxicity and paralysis at higher concentrations.

| SMILES | MIC against Staphylococcus aureus (Staphylococcus aureus) [µg/mL] | MIC against Staphylococcus pseudintermedius [1] [µg/mL] | IC10 haemolysis (rat erythrocytes) [µM] | IC50 (rat erythrocytes) [µM] | hemolysis at 1 h, 150 µM (in vitro [2]) [%] | hemolysis at 1 h, 150 µM (in vitro [3]) [%] | IC10 haemolysis (bovine erythrocytes) [µM] | MIC against Pseudomonas aeruginosa (Pseudomonas aeruginosa) [µg/mL] | hemolysis at 1 h, 150 µM (in vitro [5]) [%] | IC10 haemolysis (canine erythrocytes) [µM] | IC50 (canine erythrocytes) [µM] | IC10 haemolysis (human erythrocytes [6]) [µM] | IC50 (human erythrocytes [6]) [µM] | hemolysis at 1 h, 150 µM (in vitro [7]) [%] | S.p. MIC [1] [µM] | IC50 (HaCaT cells) [µM] | IC50 (HepG2 cells) [µM] | Solubility in PBS (in words) [8] | IC50 (HeLa cells) [µM] | other results |
| --- | --- | --- | --- | --- | --- | --- | --- | --- | --- | --- | --- | --- | --- | --- | --- | --- | --- | --- | --- | --- |
| CC(C)C[C@H](NC(=O)[C@H](CCCCN)NC(=O)[C@H](CCCCN)NC(=O)[C@@H](N)CCCCN)C(=O)N[C@@H](Cc1cccc2ccccc12)C(=O)N[C@@H](Cc1ccccc1)C(=O)N[C@@H](Cc1cccc2ccccc12)C(N)=O [Compound 7, Lys-Lys-Lys-Leu-(1-Nal)Ala-Phe(1-Nal)Ala] (HELM PEPTIDE1{K.K.K.L.[O=C([C@H](Cc1cccc2ccccc12)N[*:1])[*:2]].F.[O=C([C@H](Cc1cccc2ccccc12)N[*:1])[*:2]].[am]}$$$$V2.0) | 16 (≈ 15.1 µM) | 8 (≈ 7.57 µM) | 76.9 | 143 | 54.3 | 16 | 118.8 | 16 (≈ 15.1 µM) | 102 | 32.7 | 47.2 | 35.2 | 82.6 | 83.8 | – | – | – | – | – | Haemolysis at 80 µM (in words) (rat erythrocytes): near total haemolysis; Previously reported haemolytic activity against human erythrocytes (in words) (human erythrocytes [4]): high in vitro haemolytic activity; Haemolysis at 80 µM (in words) (canine erythrocytes): near total haemolysis; Haemolysis at 80 µM (in words) (human erythrocytes [6]): near total haemolysis |
| CCCCN(CC(=O)N[C@@H](CCCCN)C(=O)N[C@@H](CCCCN)C(=O)N[C@@H](CCCCN)C(N)=O)C(=O)CN(Cc1cccc2ccccc12)C(=O)CN(Cc1ccccc1)C(=O)CNCc1cccc2ccccc12 [Compound 2, (N1-Nal)Gly-(N-Phe)Gly-(N1-Nal)Gly-(N-Bu)Gly-Lys-Lys-Lys] (H-[N(1-naphthylmethyl)Gly][Nphe][N(1-naphthylmethyl)Gly][NBuGly]KKK-NH2) | 16 (≈ 15.1 µM) | 8 (≈ 7.57 µM) | 20.3 | 35.1 | 100 | < 8 | – | 32 (≈ 30.3 µM) | 100 | 12.8 | 32 | 11.2 | 40 | 78.1 | 7.6 | 89 | 355 | – | – | Haemolytic activity (in words) (human erythrocytes [6]): amongst the top five most haemolytic compounds |
| CC(C)C[C@@H](NC(=O)[C@H](CCCCN)NC(=O)[C@H](CCCCN)NC(=O)[C@@H](N)CCCCN)C(=O)N[C@H](Cc1cccc2ccccc12)C(=O)N[C@H](Cc1ccccc1)C(=O)N[C@H](Cc1cccc2ccccc12)C(N)=O [Compound 11, Lys-Lys-Lys-Leu-(1-Nal)Ala-Phe-(1-Nal)Ala] (HELM PEPTIDE1{K.K.K.[dL].[O=C([C@@H](Cc1cccc2ccccc12)N[*:1])[*:2]].[dF].[O=C([C@@H](Cc1cccc2ccccc12)N[*:1])[*:2]].[am]}$$$$V2.0) | 8 (≈ 7.57 µM) | 2 (≈ 1.89 µM) | 128.2 | > 150 | 11.3 | 17.4 | 89.2 | 8 (≈ 7.57 µM) | 40.7 | 30.4 | > 150 | 32.8 | > 150 | 33.3 | 1.9 | 517 | 233 | required mild heating and sonication at the highest concentration | 233 | solubility (physchem): 1000 µg/mL (≈ 947 µM); Maximal serum concentration (calculated from dose) ([9]; 1 mg/mL in PBS injected, assuming 17 mL blood volume for a 250 g rat): 15 µM; Whole blood haemolysis in vivo ([9]; in vivo, iv): not observed in vivo |
| CC(C)C[C@@H](NC(=O)[C@@H](Cc1ccc2ccccc2c1)NC(=O)[C@@H](Cc1ccccc1)NC(=O)[C@H](N)Cc1ccc2ccccc2c1)C(=O)N[C@@H](CCCCN)C(=O)N[C@@H](CCCCN)C(=O)N[C@@H](CCCCN)C(N)=O [Compound 4, (2-Nal)Ala-Phe-(2-Nal)Ala-Leu-Lys-Lys-Lys] (HELM PEPTIDE1{[N[C@H](Cc1ccc2ccccc2c1)C(=O)[*:2]].[dF].[O=C([C@@H](Cc1ccc2ccccc2c1)N[*:1])[*:2]].[dL].K.K.K.[am]}$$$$V2.0) | 32 (≈ 30.3 µM) | 16 (≈ 15.1 µM) | > 150 | > 150 | < 8 | < 8 | – | > 64 | < 8 | > 150 | > 150 | > 150 | > 150 | < 8 | 15.1 | 433 | – | freely soluble | 783 | Clinical signs of discomfort after injection ([9]; i.v. tail vein, high dose (1 mg/mL), two animals, after initial 30 min recovery): less mobility and reactivity to stimuli; Release of haemoglobin in vivo ([9]; i.v., high dose, 3 h): slightly elevated release of haemoglobin; Adverse effects at 8 h after injection ([9]; i.v., high dose, 8 h): no adverse effects were observed; Bilirubin concentration ([9]; i.v., plasma 24 h): no elevated concentration was observed; AST and ALT concentration ([9]; i.v., plasma 24 h, high dose for 4): slight increase of both AST and ALT |

Source: paper PMC7414031, “Correlation between hemolytic activity, cytotoxicity and systemic in vivo toxicity of synthetic antimicrobial peptides” (Scientific Reports, 2020)
